Results as given in US20200155650A1, “Combination treatment of NAFLD and NASH” (CymaBay Therapeutics, Inc., priority 2018, published 2020).

Columns and labels:
[1] = system: subjects with liver biopsy-proven NASH; experiment: Example 3, clinical, single agent seladelpar in biopsy-proven NASH; assay type: in vivo, human; conditions: 10, 20, and 50 mg/day for 52 weeks
Protocol: One hundred seventy-five subjects with liver biopsy-proven NASH are treated with doses of 10, 20, and 50 mg/day, or placebo (2:2:2:1 randomization) for 52 weeks. Subjects are permitted their usual other medications (e.g. antidiabetic medications such as metformin or […]) but not glitazones, PPAR agonists, OCA, or similar medications. […] The primary efficacy outcome is the change in baseline in liver fat content at 12 weeks, as measured by magnetic resonance imaging-derived proton density fat fraction (MRI-PDFF). Other outcome measures include histological improvement in NASH and fibrosis, assessed by comparing liver biopsy samples at baseline and at 52 weeks after the start of dosing; MRI-PDFF at 26 and 52 weeks; and measurements of total cholesterol, HDL-C, LDL-C, VLDL-C, TGs, apoB, and liver transaminases. The subjects also maintain health diaries, which are reviewed at each visit.

[2] = system: Alms1 mutant (fozlfoz) mice; conditions: 10 mg/Kg by gavage for 8 weeks, cited from earlier work
PPARα = molecular target: T1, PPARα (Homo sapiens, UniProt Q07869); conditions: cited from earlier work
T1 sequence (Q07869 1-468): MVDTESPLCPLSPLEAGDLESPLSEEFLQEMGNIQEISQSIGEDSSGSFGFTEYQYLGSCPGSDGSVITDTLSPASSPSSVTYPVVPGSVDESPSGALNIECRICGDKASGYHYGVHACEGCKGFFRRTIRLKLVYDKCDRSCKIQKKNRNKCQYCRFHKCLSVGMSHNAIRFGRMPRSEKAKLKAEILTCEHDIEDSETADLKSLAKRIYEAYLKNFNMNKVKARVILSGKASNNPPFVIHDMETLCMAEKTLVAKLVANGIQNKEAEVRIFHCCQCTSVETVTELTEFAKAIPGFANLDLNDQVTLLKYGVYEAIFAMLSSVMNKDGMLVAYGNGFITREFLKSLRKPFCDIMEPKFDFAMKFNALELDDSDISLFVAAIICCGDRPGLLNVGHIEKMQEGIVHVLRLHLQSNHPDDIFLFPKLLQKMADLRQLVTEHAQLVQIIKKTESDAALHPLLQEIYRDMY

Compound | improvement in disease (MRI-PDFF, liver biopsy, NAS score) [1] | mean nonalcoholic fatty liver disease activity score (NAS) ([2]; vehicle 6.9) | reduction of serum alanine aminotransferase ([2]; vehicle 300-600 U/L) | hyperglycemia, hyperinsulinemia, and glucose disposal [2] | EC50 (PPARα)
CCO[C@H](COc1ccc(C(F)(F)F)cc1)CSc1ccc(OCC(=O)O)c(C)c1 [Seladelpar, (R)-2-(4-((2-ethoxy-3-(4-(trifluoromethyl)phenoxy)propyl)-sulfanyl)-2-methylphenoxy)acetic acid] | dose-related improvement in their disease | 3.13 | 50% | normalized | 
CSc1ccc(C(=O)/C=C/c2cc(C)c(OC(C)(C)C(=O)O)c(C)c2)cc1 [elafibranor] |  |  |  |  | 6 nM
